This is an account of results in paper PMC2171590 (The Journal of Cell Biology, 2005).

The target in assay [1] is GST-tagged Las17WCA (S. cerevisiae). The assay can be described thus: pull-down.
In assay [2] the target is Arp2/3 complex (yeast) (Saccharomyces cerevisiae, UniProt P32381+P47117, P32381:Y309A). The assay can be described thus: fluorescence increase titration, one-site fit. The class given is binding.
Assay [3] addresses Arp2/3 complex (yeast) (Saccharomyces cerevisiae, UniProt P32381+P47117, P47117:D12A). Description: fluorescence increase titration, one-site fit. The class given is binding.
The target in assay [4] is Arp2/3 complex (yeast) (Saccharomyces cerevisiae, UniProt P32381+P47117, P47117:F362A). Description: fluorescence increase titration, one-site fit. The class given is binding.
In assay [5] the target is Arp2/3 complex (yeast) (Saccharomyces cerevisiae, UniProt P32381+P47117). The assay can be described thus: fluorescence increase titration, one-site fit. Format: binding.
Assay [6] concerns the target Arp2/3 complex (yeast) (Saccharomyces cerevisiae, UniProt P32381+P47117, P32381:G305Y). The assay can be described thus: fluorescence increase titration, one-site fit. The class given is binding.
In assay [7] the target is Arp2/3 complex (yeast) (Saccharomyces cerevisiae, UniProt P32381+P47117, P47117:G358Y). Description: fluorescence increase titration, one-site fit. The class given is binding.
In assay [8] the target is Arp2/3 complex (yeast) (Saccharomyces cerevisiae, UniProt P32381+P47117, P32381:D10A). Description: fluorescence increase titration, one-site fit. Format: binding.

Sequence of GST-tagged Las17WCA (S. cerevisiae) (Q12446 whole entry): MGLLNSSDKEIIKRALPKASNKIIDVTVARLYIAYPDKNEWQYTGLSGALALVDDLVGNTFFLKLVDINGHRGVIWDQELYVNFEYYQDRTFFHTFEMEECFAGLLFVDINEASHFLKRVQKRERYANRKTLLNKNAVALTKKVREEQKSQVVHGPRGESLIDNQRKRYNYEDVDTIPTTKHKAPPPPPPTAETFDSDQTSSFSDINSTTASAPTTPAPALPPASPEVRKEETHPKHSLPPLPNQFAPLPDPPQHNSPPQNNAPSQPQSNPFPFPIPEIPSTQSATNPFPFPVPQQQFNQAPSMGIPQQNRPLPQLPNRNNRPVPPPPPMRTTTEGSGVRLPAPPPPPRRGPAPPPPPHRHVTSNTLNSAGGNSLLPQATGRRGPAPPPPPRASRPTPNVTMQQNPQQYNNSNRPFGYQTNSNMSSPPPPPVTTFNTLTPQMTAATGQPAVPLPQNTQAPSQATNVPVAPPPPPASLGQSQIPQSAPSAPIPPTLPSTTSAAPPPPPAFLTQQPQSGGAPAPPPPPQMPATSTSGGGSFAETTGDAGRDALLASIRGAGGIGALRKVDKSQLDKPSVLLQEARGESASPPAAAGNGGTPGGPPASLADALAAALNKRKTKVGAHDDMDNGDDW

In assay [1], “wild-type yeast Arp2/3 complex (from UniProt P32381 1-391; P47117 1-449; P38328 1-384; Q05933 1-178; P40518 1-154)” returned a Kd of 4.5 µM.

Turning to `O=P(O)(O)OP(=O)(O)OP(=O)(O)OC[C@H]1O[C@@H](n2cnc3c2ncn2ccnc32)[C@H](O)[C@@H]1O` [etheno-ATP], the Kd on Arp2/3 complex (yeast) [2] is 2.4 ± 0.2 µM; on Arp2/3 complex (yeast) [3], 34.5 ± 2.2 µM; at Arp2/3 complex (yeast) [4], 16.7 ± 4.2 µM; on Arp2/3 complex (yeast) [5], 2.3 ± 0.1 µM; on Arp2/3 complex (yeast) [6] it was 1.8 ± 0.1 µM; on Arp2/3 complex (yeast) [7], 22 ± 4.4 µM. The same compound yielded a Kd at Arp2/3 complex (yeast) [8] of 2 ± 0.1 µM.

For the compound “arp3-G302Y Arp2/3 complex (from UniProt P32381 1-391; P38328 1-384; Q05933 1-178; P40518 1-154)”, the Kd in assay [1] came to 4.5 µM.

Turning to “arp2-G302Y Arp2/3 complex (from UniProt P47117 1-449; P38328 1-384; Q05933 1-178; P40518 1-154)”, the Kd in assay [1] turned out to be 3.9 µM.

The term Kd denotes the free concentration of one partner at which half of the binding sites on the other are occupied at equilibrium, for simple one-to-one binding.
